Test results taken from ChEMBL document CHEMBL2385021, “Discovery of MK-3168: A PET Tracer for Imaging Brain Fatty Acid Amide Hydrolase” (ACS Med Chem Lett, 2013).

Legend:
[1] = target: T1, Fatty-acid amide hydrolase 1 (Rattus norvegicus, UniProt P97612); assay: Inhibition of rat FAAH expressed in CHO cell lysates assessed as arachidonyl-7-amino-4-methylcoumarin amide hydrolysis to 7-amino 4-methyl coumarin preincubated for 15 mins prior to substrate addition measured after 1 to 3 hrs by fluorescence assay; format: cell-free
T1 sequence (P97612 whole entry): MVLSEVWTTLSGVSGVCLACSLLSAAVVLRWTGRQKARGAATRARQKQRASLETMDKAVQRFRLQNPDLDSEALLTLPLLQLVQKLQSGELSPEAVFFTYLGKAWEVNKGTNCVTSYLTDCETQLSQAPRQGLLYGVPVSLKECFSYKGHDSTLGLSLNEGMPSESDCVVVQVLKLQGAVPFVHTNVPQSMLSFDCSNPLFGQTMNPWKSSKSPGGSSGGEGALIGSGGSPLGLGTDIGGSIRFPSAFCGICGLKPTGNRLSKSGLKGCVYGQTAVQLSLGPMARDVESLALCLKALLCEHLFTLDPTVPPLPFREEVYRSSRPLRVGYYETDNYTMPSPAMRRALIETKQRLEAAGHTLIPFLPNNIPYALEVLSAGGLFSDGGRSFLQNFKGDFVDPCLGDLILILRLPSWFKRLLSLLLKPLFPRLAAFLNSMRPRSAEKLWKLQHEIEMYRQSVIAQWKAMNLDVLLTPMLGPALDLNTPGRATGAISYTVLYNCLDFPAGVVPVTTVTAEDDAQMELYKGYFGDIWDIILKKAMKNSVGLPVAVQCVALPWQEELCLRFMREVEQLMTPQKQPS

[2] = target: T2, Fatty-acid amide hydrolase 1 (Homo sapiens, UniProt O00519); assay: Inhibition of human FAAH expressed in CHO cell lysates assessed as arachidonyl-7-amino-4-methylcoumarin amide hydrolysis to 7-amino 4-methyl coumarin preincubated for 15 mins prior to substrate addition measured after 1 to 3 hrs by fluorescence assay; format: cell-free
T2 sequence (O00519 whole entry): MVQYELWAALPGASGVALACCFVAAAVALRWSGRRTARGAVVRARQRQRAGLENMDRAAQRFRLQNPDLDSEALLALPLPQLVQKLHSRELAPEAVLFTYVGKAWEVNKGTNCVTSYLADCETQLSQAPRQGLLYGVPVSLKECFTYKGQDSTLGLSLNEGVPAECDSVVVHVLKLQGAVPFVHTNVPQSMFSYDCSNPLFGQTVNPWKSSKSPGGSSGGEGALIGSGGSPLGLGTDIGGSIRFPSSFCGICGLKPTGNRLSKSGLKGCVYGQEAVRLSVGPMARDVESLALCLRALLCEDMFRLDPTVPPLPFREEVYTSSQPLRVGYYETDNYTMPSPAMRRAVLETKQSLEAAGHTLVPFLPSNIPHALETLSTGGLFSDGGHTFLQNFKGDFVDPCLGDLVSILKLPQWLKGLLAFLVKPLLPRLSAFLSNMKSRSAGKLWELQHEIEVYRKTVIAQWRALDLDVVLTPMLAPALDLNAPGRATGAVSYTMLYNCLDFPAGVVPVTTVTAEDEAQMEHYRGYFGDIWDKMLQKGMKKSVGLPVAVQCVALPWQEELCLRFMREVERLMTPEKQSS

[3] = Lipophilicity, log D of the compound at pH 7.3 by HPLC analysis; format: physicochemical; details: buffer
[4] = Inhibition of rhesus monkey FAAH expressed in CHO cell lysates assessed as arachidonyl-7-amino-4-methylcoumarin amide hydrolysis to 7-amino 4-methyl coumarin preincubated for 15 mins prior to substrate addition measured after 1 to 3 hrs by fluorescence assay; format: cell-free, Macaca mulatta
[5] = Apparent permeability of the compound; format: ADME; details: not told
Brain [6] = assay: Drug uptake in iv dosed rhesus monkey brain after 45 mins measured per mCi/kg by positron emission tomographic analysis; format: ADME, organism-based, Macaca mulatta; details: in vivo, 0.75 h
Hippocampus = assay: Drug uptake in rhesus monkey hippocampal regions at 5 mCi, iv after 45 mins by positron emission tomographic analysis; format: ADME, organism-based, Macaca mulatta; details: in vivo, 0.75 h
Striatum = assay: Drug uptake in rhesus monkey striatum at 5 mCi, iv after 45 mins by positron emission tomographic analysis; format: ADME, organism-based, Macaca mulatta; details: in vivo, 0.75 h
[7] = Drug uptake in rhesus monkey frontal cortex at 5 mCi, iv after 45 mins by positron emission tomographic analysis; format: ADME, organism-based, Macaca mulatta; details: in vivo, 0.75 h
[8] = target: T2, Fatty-acid amide hydrolase 1; assay: (§1) Binding affinity to FAAH in human cortical homogenates
[9] = (§2) Binding affinity to FAAH in rhesus monkey cortical homogenates; format: tissue-based, Macaca mulatta
[10] = target: T1, Fatty-acid amide hydrolase 1; assay: Binding affinity to FAAH in rat cortical homogenates
[11] = target: T3, Fatty-acid amide hydrolase 1 (Homo sapiens) (UniProt O00519); assay: as §1; details: tested as the 3H-labelled form
T3 sequence (whole entry): T2 sequence (O00519 whole entry)

Macaca mulatta [12] = species on record: Macaca mulatta; assay: as §2; format: tissue-based; details: tested as the 3H-labelled form
[13] = Ratio of drug level in brain to plasma in rat at 2 mg/kg, po after 2 hrs; format: ADME, organism-based; parameters: dose 2 mg/kg, route oral; details: read-out: BPR
Brain [14] = assay: Drug uptake in rat brain at 2 mg/kg, po after 2 hrs; format: ADME, organism-based; parameters: dose 2 mg/kg, route oral; details: in vivo
[15] = Activity at human P-glycoprotein; format: ADME
[16] = Activity at rat P-glycoprotein; format: ADME
Cannabinoid receptor 2 = Cannabinoid receptor 2 (Homo sapiens, UniProt P34972); assay: Inhibition of CB2 receptor (unknown origin)
Cytochrome P450 3A4 = Cytochrome P450 3A4 (Homo sapiens, UniProt P08684); assay: Inhibition of CYP3A4 (unknown origin); format: ADME
Cannabinoid receptor 1 = Cannabinoid receptor 1 (Homo sapiens, UniProt P21554); assay: Inhibition of CB1 receptor (unknown origin)
[17] = target: Voltage-gated inwardly rectifying potassium channel KCNH2 (Homo sapiens, UniProt Q12809); assay: Inhibition of human ERG
[18] = Inhibition of L-type calcium channel diltiazem binding site (unknown origin); parameters: species or system Homo sapiens
Phosphodiesterase 4 = Phosphodiesterase 4 (Homo sapiens, UniProt P27815+Q08499+Q07343+Q08493); assay: Inhibition of phosphodiesterase PDE4 (unknown origin); format: protein assay
Acetylcholinesterase = Acetylcholinesterase (Homo sapiens, UniProt P22303); assay: Inhibition of acetyl cholinesterase (unknown origin)
Macaca mulatta [19] = species on record: Macaca mulatta; assay: Inhibition of FAAH in rhesus monkey whole blood; format: tissue-based
[20] = target: T3, Fatty-acid amide hydrolase 1 (Homo sapiens); assay: Inhibition of FAAH in human whole blood
[21] = Solubility of the compound in saline buffer at pH 3 to 8 in presence of 10% ethanol; format: physicochemical
[22] = Chemical stability of the compound; format: physicochemical

Sequence of Cannabinoid receptor 2 (P34972 whole entry): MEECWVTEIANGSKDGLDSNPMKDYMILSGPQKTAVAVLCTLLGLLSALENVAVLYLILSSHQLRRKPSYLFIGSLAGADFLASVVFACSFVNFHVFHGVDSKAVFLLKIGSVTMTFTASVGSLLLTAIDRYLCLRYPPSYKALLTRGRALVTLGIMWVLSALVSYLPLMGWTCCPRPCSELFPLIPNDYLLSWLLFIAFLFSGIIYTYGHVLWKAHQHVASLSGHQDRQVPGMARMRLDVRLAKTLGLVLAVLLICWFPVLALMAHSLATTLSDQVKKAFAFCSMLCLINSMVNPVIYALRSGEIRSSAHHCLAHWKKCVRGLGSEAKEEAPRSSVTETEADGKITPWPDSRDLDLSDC
Sequence of Voltage-gated inwardly rectifying potassium channel KCNH2 (Q12809 whole entry): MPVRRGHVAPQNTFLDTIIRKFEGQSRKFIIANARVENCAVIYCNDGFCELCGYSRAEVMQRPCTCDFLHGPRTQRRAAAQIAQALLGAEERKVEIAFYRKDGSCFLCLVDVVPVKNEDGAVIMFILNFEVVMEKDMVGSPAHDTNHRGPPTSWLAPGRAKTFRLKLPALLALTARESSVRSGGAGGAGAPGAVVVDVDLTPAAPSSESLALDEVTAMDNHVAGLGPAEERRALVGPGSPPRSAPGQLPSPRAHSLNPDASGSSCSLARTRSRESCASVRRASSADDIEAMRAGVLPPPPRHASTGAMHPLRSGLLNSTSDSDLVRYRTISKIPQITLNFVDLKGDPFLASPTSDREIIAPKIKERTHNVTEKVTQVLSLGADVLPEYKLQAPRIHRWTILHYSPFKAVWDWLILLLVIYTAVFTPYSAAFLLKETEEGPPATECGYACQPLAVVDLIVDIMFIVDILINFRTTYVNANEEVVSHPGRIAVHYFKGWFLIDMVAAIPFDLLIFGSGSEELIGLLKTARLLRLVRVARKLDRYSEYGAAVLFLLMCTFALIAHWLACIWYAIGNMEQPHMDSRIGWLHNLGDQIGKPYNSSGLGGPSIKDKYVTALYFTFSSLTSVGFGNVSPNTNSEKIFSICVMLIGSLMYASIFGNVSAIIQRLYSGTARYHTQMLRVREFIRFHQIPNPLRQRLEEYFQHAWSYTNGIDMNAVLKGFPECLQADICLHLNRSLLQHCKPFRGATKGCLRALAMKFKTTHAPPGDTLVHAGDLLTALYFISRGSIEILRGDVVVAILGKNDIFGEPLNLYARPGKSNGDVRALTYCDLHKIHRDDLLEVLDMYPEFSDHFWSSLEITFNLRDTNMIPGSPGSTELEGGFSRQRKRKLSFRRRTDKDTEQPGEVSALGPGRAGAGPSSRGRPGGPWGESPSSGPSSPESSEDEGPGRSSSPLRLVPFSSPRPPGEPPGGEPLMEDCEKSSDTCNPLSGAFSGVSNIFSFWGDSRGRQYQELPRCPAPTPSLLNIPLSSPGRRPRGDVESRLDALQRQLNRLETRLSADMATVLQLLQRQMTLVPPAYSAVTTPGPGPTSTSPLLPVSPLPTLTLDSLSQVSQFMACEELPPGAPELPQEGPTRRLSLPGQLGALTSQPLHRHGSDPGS
Sequence of Cytochrome P450 3A4 (P08684 whole entry): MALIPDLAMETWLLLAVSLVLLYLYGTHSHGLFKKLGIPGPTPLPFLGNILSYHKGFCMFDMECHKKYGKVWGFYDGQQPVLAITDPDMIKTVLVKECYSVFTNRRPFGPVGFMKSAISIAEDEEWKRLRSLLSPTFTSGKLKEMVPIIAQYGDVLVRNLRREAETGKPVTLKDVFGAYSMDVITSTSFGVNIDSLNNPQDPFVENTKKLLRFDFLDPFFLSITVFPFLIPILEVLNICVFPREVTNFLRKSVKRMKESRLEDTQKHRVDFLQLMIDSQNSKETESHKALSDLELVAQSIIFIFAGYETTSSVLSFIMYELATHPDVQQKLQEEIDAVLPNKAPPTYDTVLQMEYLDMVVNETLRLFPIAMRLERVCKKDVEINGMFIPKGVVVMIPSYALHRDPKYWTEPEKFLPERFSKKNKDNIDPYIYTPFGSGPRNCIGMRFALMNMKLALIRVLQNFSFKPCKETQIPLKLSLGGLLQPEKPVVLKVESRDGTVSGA
Sequence of Acetylcholinesterase (P22303 whole entry): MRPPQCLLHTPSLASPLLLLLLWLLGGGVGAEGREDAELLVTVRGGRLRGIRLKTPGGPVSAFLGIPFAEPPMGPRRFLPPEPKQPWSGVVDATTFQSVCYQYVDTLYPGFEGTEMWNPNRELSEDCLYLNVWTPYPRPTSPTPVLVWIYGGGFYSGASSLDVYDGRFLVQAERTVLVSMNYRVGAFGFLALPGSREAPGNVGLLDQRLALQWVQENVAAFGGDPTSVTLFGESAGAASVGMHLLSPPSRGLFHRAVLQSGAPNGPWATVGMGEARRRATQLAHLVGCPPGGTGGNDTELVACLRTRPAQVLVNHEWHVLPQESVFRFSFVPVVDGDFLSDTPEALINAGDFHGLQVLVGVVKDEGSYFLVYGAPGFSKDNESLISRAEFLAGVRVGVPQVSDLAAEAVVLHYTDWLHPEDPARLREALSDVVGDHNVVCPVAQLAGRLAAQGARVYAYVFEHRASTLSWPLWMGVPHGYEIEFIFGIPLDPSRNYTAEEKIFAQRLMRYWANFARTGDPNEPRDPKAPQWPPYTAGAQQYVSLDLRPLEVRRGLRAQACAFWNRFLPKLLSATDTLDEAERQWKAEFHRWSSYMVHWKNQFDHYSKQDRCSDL
Sequence of Cannabinoid receptor 1 (P21554 whole entry): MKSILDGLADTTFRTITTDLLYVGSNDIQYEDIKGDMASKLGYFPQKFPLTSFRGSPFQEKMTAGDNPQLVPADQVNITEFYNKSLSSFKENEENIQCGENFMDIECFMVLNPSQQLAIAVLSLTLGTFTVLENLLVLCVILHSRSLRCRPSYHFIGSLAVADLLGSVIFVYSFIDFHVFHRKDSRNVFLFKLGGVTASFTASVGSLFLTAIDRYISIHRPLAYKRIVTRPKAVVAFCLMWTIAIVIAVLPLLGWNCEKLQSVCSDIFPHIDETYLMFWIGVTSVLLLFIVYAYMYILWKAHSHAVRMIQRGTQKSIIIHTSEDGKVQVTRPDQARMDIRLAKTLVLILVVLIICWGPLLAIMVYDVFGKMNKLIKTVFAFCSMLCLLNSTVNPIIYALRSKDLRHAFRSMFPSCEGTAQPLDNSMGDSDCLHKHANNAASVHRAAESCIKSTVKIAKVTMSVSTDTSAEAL

| SMILES | IC50 [1] | IC50 [2] | logD [3] | IC50 [4] | other results |
| --- | --- | --- | --- | --- | --- |
| CN(C)C(=O)[C@H]1C[C@@H]1c1ccc(-c2c(Sc3ccc(Cl)cn3)ncn2C)cc1 | 1390 nM | 839 nM | – | – | – |
| Cn1cnc(-c2ccc([C@H]3C[C@@H]3C(=O)NCCF)cc2)c1Sc1ccc(Cl)cn1 | 4.2 nM | – | 3 | 7 nM | – |
| Cn1cnc(-c2ccc([C@H]3C[C@@H]3C(N)=O)cc2)c1Sc1ccc(Cl)cn1 | 12 nM | – | 2 | – | – |
| Cn1cnc(-c2ccc([C@H]3C[C@@H]3C(=O)NCCF)cc2)c1Sc1ccc(Cl)cc1 | 1.4 nM | 1 nM | 4 | 3.1 nM | – |
| [11CH3]n1cc(Sc2ccc(Cl)cc2)c(-c2ccc3ccc(C(N)=O)nc3c2)n1 | 0.4 nM | 0.5 nM | 4.2 | 0.8 nM | – |
| CN(C)C(=O)[C@H]1C[C@@H]1c1ccc(-c2ncn([11CH3])c2Sc2ccc(Cl)cn2)cc1 [MK-3168 C-11] | – | – | – | – | Papp [5]: 27 ×10⁻⁶ cm/s; SUV (Brain [6]): > 1 nCi/cc; Drug uptake (Hippocampus): Active; Drug uptake (Striatum): Active; Drug uptake [7]: Active |
| CN(C)C(=O)[C@H]1C[C@@H]1c1ccc(-c2ncn(CCF)c2Sc2ccc(Cl)cn2)cc1 | 4.8 nM | – | – | – | – |
| Cn1cnc(-c2ccc([C@H]3C[C@@H]3C(N)=O)cc2)c1Sc1ccc(Cl)cc1 | 1.7 nM | 0.8 nM | 3.6 | – | – |
| [3H]C([3H])([3H])n1cnc(-c2ccc([C@H]3C[C@@H]3C(=O)N(C)C)cc2)c1Sc1ccc(Cl)cn1 | – | – | – | – | Kd [8]: 0.8 nM; Kd [9]: 1.4 nM; Kd [10]: 0.6 nM |
| CNC(=O)[C@H]1C[C@@H]1c1ccc(-c2ncn(C)c2Sc2ccc(Cl)cc2)cc1 | 1.4 nM | 0.5 nM | 3.8 | – | – |
| CN(C)C(=O)[C@H]1C[C@@H]1c1ccc(-c2ncn(C)c2Sc2ccc(Cl)cc2)cc1 | 0.6 nM | – | 4.2 | 1.4 nM | – |
| NC(=O)[C@H]1C[C@@H]1c1ccc(-c2nn(C3CC3)cc2Sc2ccc(Cl)cc2)cc1 | 4.2 nM | 5 nM | 3.8 | 33 nM | – |
| CN(CCF)C(=O)[C@H]1C[C@@H]1c1ccc(-c2ncn(C)c2Sc2ccc(Cl)cn2)cc1 | 3 nM | – | 3.4 | 27 nM | – |
| Cc1nc(-c2ccc([C@H]3C[C@@H]3C(=O)N(C)C)cc2)c(Sc2ccc(Cl)cn2)n1C | 34 nM | 13.6 nM | – | – | – |
| CNC(=O)[C@H]1C[C@@H]1c1ccc(-c2ncn(C)c2Sc2ccc(Cl)cn2)cc1 | 6 nM | – | 2.9 | – | – |
| CN(CCF)C(=O)[C@H]1C[C@@H]1c1ccc(-c2ncn(C)c2Sc2ccc(Cl)cc2)cc1 | 1.3 nM | 1.1 nM | 4.3 | 8.8 nM | – |
| CN(C)C(=O)[C@H]1C[C@@H]1c1ccc(-c2nc(C3CC3)n(C)c2Sc2ccc(Cl)cn2)cc1 | 106 nM | 48 nM | – | – | – |
| CN(C)C(=O)[C@H]1C[C@@H]1c1ccc(-c2ncn(C)c2Sc2ccc(Cl)cn2)cc1 [MK-3168] | 1.7 nM | – | 3.3 | 5.5 nM | Bmax [11]: 15 nM; Bmax (Macaca mulatta [12]): 21 nM; Kp at 2 h [13]: 7; Drug uptake (Brain [14]): Active; Activity [15]: Not Active; Activity [16]: Not Active; IC50 (Cannabinoid receptor 2): 150000 nM; IC50 (Cytochrome P450 3A4): > 50000 nM; IC50 (Cannabinoid receptor 1): 30000 nM; IC50 [17]: 37000 nM; IC50 [18]: 16000 nM; IC50 (Phosphodiesterase 4): 9750 nM; IC50 (Acetylcholinesterase): 1630 nM; IC90 (Macaca mulatta [19]): 29 nM; IC90 [20]: 5.5 nM; solubility [21]: soluble; Stability [22]: 24 h |
| CN(C)C(=O)[C@H]1C[C@@H]1c1ccc(-c2nc[nH]c2Sc2ccc(Cl)cn2)cc1 | 145 nM | – | – | – | – |
